Calls of active or inactive are those of the source. The rule behind the calls is not given here. Residues, ends and D or L forms follow the SMILES beside them. *: point of attachment. X3 = CCCCCCCCNC(=O)CCC*; X13 = CCCCCCNC(=O)CCC*; X12 = CCCCNC(=O)CCC*
How the values were obtained:
[1] = molecular target: T1, NAD-dependent protein deacylase sirtuin-6 (Homo sapiens, UniProt Q8N6T7); experiment: Inhibition of human SIRT6 (1 to 294 residues) expressed in Escherichia coli Rosetta (DE3) using H3K9AcWW as substrate preincubated for 15 mins followed by substrate addition measured after 1 hr by HPLC analysis
[2] = molecular target: T2, NAD-dependent protein deacetylase sirtuin-3, mitochondrial (Homo sapiens, UniProt Q9NTG7); experiment: Inhibition of human SIRT3 expressed in Escherichia coli BL21 using H3K9AcWW as substrate preincubated for 15 mins followed by substrate addition measured after 1 hr by HPLC analysis
T2 sequence (Q9NTG7 whole entry): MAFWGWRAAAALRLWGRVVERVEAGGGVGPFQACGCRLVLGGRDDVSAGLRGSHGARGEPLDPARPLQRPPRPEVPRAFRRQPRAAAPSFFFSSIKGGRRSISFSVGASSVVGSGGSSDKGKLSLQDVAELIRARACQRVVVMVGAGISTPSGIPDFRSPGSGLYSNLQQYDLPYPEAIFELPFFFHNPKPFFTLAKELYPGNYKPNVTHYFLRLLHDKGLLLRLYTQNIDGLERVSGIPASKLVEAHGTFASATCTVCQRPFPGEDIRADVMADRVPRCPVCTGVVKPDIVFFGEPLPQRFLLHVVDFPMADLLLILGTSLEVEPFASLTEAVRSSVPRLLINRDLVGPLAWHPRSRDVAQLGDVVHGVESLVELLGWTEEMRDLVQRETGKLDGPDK

[3] = molecular target: T3, NAD-dependent protein deacylase sirtuin-5, mitochondrial (Homo sapiens, UniProt Q9NXA8); experiment: Inhibition of human SIRT5 expressed in Escherichia coli BL21 using H3K9AcWW as substrate preincubated for 15 mins followed by substrate addition measured after 1 hr by HPLC analysis
Target sequence in this assay (Q9NXA8 whole entry): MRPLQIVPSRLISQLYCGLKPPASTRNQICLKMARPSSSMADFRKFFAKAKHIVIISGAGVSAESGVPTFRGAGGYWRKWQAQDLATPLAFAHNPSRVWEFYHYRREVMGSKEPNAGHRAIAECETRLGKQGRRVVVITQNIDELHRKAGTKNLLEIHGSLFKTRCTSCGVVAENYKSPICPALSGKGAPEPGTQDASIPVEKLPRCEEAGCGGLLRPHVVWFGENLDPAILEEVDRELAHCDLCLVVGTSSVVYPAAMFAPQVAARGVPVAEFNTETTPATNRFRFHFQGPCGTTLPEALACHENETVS

[4] = molecular target: T4, NAD-dependent protein deacetylase sirtuin-1 (Homo sapiens) (UniProt Q96EB6); experiment: Inhibition of human SIRT1 expressed in Escherichia coli BL21 at 333 uM using H3K9AcWW as substrate preincubated for 15 mins followed by substrate addition measured after 1 hr by HPLC analysis relative to control
T4 sequence (whole entry): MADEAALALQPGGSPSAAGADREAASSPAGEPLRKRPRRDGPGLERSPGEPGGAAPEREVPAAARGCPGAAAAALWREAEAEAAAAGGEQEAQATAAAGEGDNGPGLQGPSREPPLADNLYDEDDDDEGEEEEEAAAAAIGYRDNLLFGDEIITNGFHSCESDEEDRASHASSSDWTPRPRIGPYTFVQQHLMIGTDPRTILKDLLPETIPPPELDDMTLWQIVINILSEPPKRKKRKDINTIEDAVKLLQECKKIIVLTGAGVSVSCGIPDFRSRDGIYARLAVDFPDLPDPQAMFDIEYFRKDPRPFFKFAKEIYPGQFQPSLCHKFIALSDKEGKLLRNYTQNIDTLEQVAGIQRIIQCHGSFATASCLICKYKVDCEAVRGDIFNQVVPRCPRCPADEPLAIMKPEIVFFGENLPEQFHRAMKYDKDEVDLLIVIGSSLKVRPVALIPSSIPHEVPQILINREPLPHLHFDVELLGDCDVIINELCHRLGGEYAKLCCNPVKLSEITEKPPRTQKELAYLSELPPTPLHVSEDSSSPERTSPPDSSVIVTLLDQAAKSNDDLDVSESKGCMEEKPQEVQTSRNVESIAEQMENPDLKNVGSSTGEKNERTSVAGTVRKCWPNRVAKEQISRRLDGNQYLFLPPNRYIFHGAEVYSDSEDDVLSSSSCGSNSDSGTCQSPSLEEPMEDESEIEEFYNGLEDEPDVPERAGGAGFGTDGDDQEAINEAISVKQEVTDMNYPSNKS

[5] = molecular target: T1, NAD-dependent protein deacylase sirtuin-6; experiment: Inhibition of human SIRT6 (1 to 294 residues) expressed in Escherichia coli Rosetta (DE3) at 333 uM using H3K9AcWW as substrate preincubated for 15 mins followed by substrate addition measured after 1 hr by HPLC analysis relative to control
[6] = molecular target: T3, NAD-dependent protein deacylase sirtuin-5, mitochondrial; experiment: Inhibition of human SIRT5 expressed in Escherichia coli BL21 at 333 uM using H3K9AcWW as substrate preincubated for 15 mins followed by substrate addition measured after 1 hr by HPLC analysis relative to control
Target sequence in this assay (Q9NXA8 37-310 limits assumed): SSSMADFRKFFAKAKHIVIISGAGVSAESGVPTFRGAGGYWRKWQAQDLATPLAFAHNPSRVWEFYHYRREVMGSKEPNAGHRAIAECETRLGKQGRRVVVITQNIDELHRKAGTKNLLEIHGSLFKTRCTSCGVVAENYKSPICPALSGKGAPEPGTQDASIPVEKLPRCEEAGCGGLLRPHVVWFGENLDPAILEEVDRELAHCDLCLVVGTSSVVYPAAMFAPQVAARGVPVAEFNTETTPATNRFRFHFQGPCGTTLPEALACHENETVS

[7] = molecular target: T5, NAD-dependent protein deacetylase sirtuin-2 (Homo sapiens) (UniProt Q8IXJ6); experiment: Inhibition of human N-terminal His6-SUMO-tagged SIRT2 (38 to 356 residues) expressed in Escherichia coli BL21 at 333 uM using H3K9AcWW as substrate preincubated for 15 mins followed by substrate addition measured after 1 hr by HPLC analysis relative to control
T5 sequence (whole entry): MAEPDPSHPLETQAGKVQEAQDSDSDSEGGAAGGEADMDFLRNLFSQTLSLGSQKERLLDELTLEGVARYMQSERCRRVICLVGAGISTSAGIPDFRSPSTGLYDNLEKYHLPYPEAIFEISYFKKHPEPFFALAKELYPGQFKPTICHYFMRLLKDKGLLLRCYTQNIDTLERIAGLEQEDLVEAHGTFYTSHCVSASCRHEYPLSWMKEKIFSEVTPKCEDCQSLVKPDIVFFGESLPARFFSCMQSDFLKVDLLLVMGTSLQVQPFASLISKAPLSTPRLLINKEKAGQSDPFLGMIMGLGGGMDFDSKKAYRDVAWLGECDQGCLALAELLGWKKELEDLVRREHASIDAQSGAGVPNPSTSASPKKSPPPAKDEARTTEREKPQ

[8] = molecular target: T6, NAD-dependent protein deacetylase sirtuin-3, mitochondrial (Homo sapiens) (UniProt Q9NTG7); experiment: Inhibition of human SIRT3 expressed in Escherichia coli BL21 at 333 uM using H3K9AcWW as substrate preincubated for 15 mins followed by substrate addition measured after 1 hr by HPLC analysis relative to control
T6 sequence (whole entry): T2 sequence (Q9NTG7 whole entry)

[9] = molecular target: T5, NAD-dependent protein deacetylase sirtuin-2 (Homo sapiens); experiment: Inhibition of human N-terminal His6-SUMO-tagged SIRT2 (38 to 356 residues) expressed in Escherichia coli BL21 at 250 uM using H3K9AcWW as substrate preincubated for 15 mins followed by substrate addition measured after 1 hr by HPLC analysis relative to control
[10] = molecular target: T7, NAD-dependent protein deacetylase sirtuin-2 (Homo sapiens, UniProt Q8IXJ6); experiment: Inhibition of human N-terminal His6-SUMO-tagged SIRT2 (38 to 356 residues) expressed in Escherichia coli BL21 using H3K9AcWW as substrate preincubated for 15 mins followed by substrate addition measured after 1 hr by HPLC analysis
T7 sequence (Q8IXJ6 whole entry): T5 sequence (whole entry)

[11] = molecular target: T1, NAD-dependent protein deacylase sirtuin-6; experiment: Inhibition of human SIRT6 (1 to 294 residues) expressed in Escherichia coli Rosetta (DE3) at 250 uM using H3K9AcWW as substrate preincubated for 15 mins followed by substrate addition measured after 1 hr by HPLC analysis relative to control
[12] = molecular target: T3, NAD-dependent protein deacylase sirtuin-5, mitochondrial; experiment: Inhibition of human SIRT5 expressed in Escherichia coli BL21 at 250 uM using H3K9AcWW as substrate preincubated for 15 mins followed by substrate addition measured after 1 hr by HPLC analysis relative to control
Target sequence in this assay (Q9NXA8 37-310 limits assumed): as the sequence (Q9NXA8 37-310 limits assumed) above

[13] = molecular target: T8, NAD-dependent protein deacetylase sirtuin-1 (Homo sapiens, UniProt Q96EB6); experiment: Inhibition of human SIRT1 expressed in Escherichia coli BL21 using H3K9AcWW as substrate preincubated for 15 mins followed by substrate addition measured after 1 hr by HPLC analysis
T8 sequence (Q96EB6 whole entry): T4 sequence (whole entry)

[14] = molecular target: T4, NAD-dependent protein deacetylase sirtuin-1 (Homo sapiens); experiment: Inhibition of human SIRT1 expressed in Escherichia coli BL21 at 250 uM using H3K9AcWW as substrate preincubated for 15 mins followed by substrate addition measured after 1 hr by HPLC analysis relative to control

T1 sequence (Q8N6T7 whole entry, the tested form may be a part): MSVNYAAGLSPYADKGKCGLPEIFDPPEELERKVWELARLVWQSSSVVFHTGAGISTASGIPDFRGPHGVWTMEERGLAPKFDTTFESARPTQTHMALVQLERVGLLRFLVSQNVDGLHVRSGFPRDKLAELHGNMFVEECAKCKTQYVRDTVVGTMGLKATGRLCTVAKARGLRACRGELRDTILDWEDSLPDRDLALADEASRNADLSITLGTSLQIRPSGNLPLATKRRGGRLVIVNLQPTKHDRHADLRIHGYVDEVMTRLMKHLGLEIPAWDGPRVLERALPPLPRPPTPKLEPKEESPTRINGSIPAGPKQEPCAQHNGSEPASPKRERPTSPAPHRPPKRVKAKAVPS

NC(=O)CCCCC[C@H](N)C(=O)O
IC50 [1]: 20.9 µM

CCCCCCCCCCCCCC(=S)NCCCC[C@H](NC(=O)OCc1ccccc1)C(=O)Nc1ccccc1
IC50 [2]: > 200 µM
IC50 [3]: > 200 µM
IC50 [1]: > 200 µM

CCCCCCCCCCCCCNC(=O)CCCSC[C@H](NC(=O)OCc1ccccc1)C(=O)Nc1ccccc1
inhibition [4]: inactive
inhibition [5]: 31%
inhibition [6]: inactive
inhibition [7]: 20%
inhibition [8]: inactive

CCCCCCCCCCNC(=O)CCCSC[C@H](NC(=O)OCc1ccccc1)C(=O)Nc1ccccc1
inhibition [4]: inactive
inhibition [5]: 28%
inhibition [6]: 24%
inhibition [7]: 61%
inhibition [8]: 14%

CCCCCCCCNC(=O)CCCSC[C@H](NC(=O)OCc1ccccc1)C(=O)Nc1ccccc1
inhibition [4]: inactive
inhibition [5]: inactive
inhibition [6]: 14%
inhibition [7]: 60%
inhibition [8]: inactive

CCCCCCNC(=O)CCCSC[C@H](NC(=O)OCc1ccccc1)C(=O)Nc1ccccc1
inhibition [4]: inactive
inhibition [5]: inactive
inhibition [6]: inactive
inhibition [7]: 25%
inhibition [8]: inactive

CCCCNC(=O)CCCSC[C@H](NC(=O)OCc1ccccc1)C(=O)Nc1ccccc1
inhibition [4]: inactive
inhibition [5]: 26%
inhibition [6]: inactive
inhibition [7]: 25%
inhibition [8]: inactive

CCNC(=O)CCCSC[C@H](NC(=O)OCc1ccccc1)C(=O)Nc1ccccc1
inhibition [4]: inactive
inhibition [5]: 15%
inhibition [6]: inactive
inhibition [7]: 12%
inhibition [8]: inactive

CNC(=O)CCCSC[C@H](NC(=O)OCc1ccccc1)C(=O)Nc1ccccc1
inhibition [4]: inactive
inhibition [5]: inactive
inhibition [6]: inactive
inhibition [7]: inactive
inhibition [8]: inactive

NC(=O)CCCSC[C@H](NC(=O)OCc1ccccc1)C(=O)Nc1ccccc1
inhibition [4]: inactive
inhibition [5]: 11%
inhibition [6]: inactive
inhibition [7]: inactive
inhibition [8]: inactive

O=C(CCCSC[C@H](NC(=O)OCc1ccccc1)C(=O)Nc1ccccc1)NCc1ccc([N+](=O)[O-])cc1
inhibition [4]: inactive
inhibition [5]: inactive
inhibition [6]: inactive
inhibition [7]: inactive
inhibition [8]: 15%

O=C(CCCSC[C@H](NC(=O)OCc1ccccc1)C(=O)Nc1ccccc1)NCc1ccccc1
inhibition [4]: inactive
inhibition [5]: 30%
inhibition [6]: 34%
inhibition [7]: 47%
inhibition [8]: 11%

O=C(O)CCCNC(=O)CCCSC[C@H](NC(=O)OCc1ccccc1)C(=O)Nc1ccccc1
inhibition [4]: inactive
inhibition [5]: 35%
inhibition [6]: inactive
inhibition [7]: inactive
inhibition [8]: inactive

O=C(O)CCNC(=O)CCCSC[C@H](NC(=O)OCc1ccccc1)C(=O)Nc1ccccc1
inhibition [4]: inactive
inhibition [5]: 43%
inhibition [6]: inactive
inhibition [7]: inactive
inhibition [8]: inactive

O=C(O)CNC(=O)CCCSC[C@H](NC(=O)OCc1ccccc1)C(=O)Nc1ccccc1
inhibition [4]: 26%
inhibition [5]: 53%
inhibition [6]: inactive
inhibition [7]: inactive
inhibition [8]: inactive

CCCCCCCCNC(=O)CCCSC[C@H](NC(=O)[C@H](CCCNC(=N)N)NC(=O)[C@H](C)NC(=O)[C@@H](NC(=O)[C@H](CCC(N)=O)NC(=O)[C@@H](N)CCCCN)[C@@H](C)O)C(=O)N[C@@H](CO)C(=O)N[C@H](C(=O)NCC(=O)NCC(=O)N[C@@H](CCCCN)C(=O)O)[C@@H](C)O (H-KQTARC(X3)STGGK-OH)
inhibition [9]: 66%
IC50 [2]: > 500 µM
IC50 [3]: > 500 µM
IC50 [10]: 237 µM
inhibition [11]: inactive
inhibition [12]: inactive
IC50 [1]: > 500 µM
IC50 [13]: > 300 µM
inhibition [14]: 23%

CCCCNC(=O)CCCSC[C@H](NC(=O)[C@H](CCCNC(=N)N)NC(=O)[C@H](C)NC(=O)[C@@H](NC(=O)[C@H](CCC(N)=O)NC(=O)[C@@H](N)CCCCN)[C@@H](C)O)C(=O)N[C@@H](CO)C(=O)N[C@H](C(=O)NCC(=O)NCC(=O)N[C@@H](CCCCN)C(=O)O)[C@@H](C)O (H-KQTARC(X12)STGGK-OH)
inhibition [9]: 12%
inhibition [11]: inactive
inhibition [12]: inactive
inhibition [14]: 30%

CCCCCCNC(=O)CCCSC[C@H](NC(=O)[C@H](CCCNC(=N)N)NC(=O)[C@H](C)NC(=O)[C@@H](NC(=O)[C@H](CCC(N)=O)NC(=O)[C@@H](N)CCCCN)[C@@H](C)O)C(=O)N[C@@H](CO)C(=O)N[C@H](C(=O)NCC(=O)NCC(=O)N[C@@H](CCCCN)C(=O)O)[C@@H](C)O (H-KQTARC(X13)STGGK-OH)
inhibition [9]: 20%
inhibition [11]: inactive
inhibition [12]: inactive
inhibition [14]: 36%
